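Step 1: Grow cells in 96-well plates. Step 2: Expose to compound for 48 hours at 5 concentrations. Step 3: Interpolate endpoints linearly; if unreached, use highest concentration. TGI: concentration producing complete growth inhibition.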

For one assay, the system named is M14 melanoma. The assay is described as follows: NCI-60 cell line screen, 48 h.
Regarding `Cc1cccc(C[C@@]2(SCc3ccccc3)C(C)(C)[C@@H]3CC[C@@]2(C)C3)n1`, the TGI was found to be 46.2 µM.

Compound `O=C1/C(=C/c2ccc([N+](=O)[O-])cc2)CNC/C1=C\c1ccc([N+](=O)[O-])cc1` registered a TGI of 28.7 µM.

With `O=C1/C(=C/c2ccc(F)cc2)CNC/C1=C\c1ccc(F)cc1`, the TGI is 4.35 µM.

Regarding `C/C(=N/NC(=S)Nc1cccc(C)c1)c1ccccn1`, the TGI was determined as 2.46 µM.

Compound `CC1CC(C#N)=C2NCCCCN2C1=O` (centres undefined) returned a TGI of over 100 µM.

In the case of `O=C(O)c1ccc(NS(=O)(=O)Cc2ccccc2)cc1`, the TGI was over 100 µM.

Turning to `Cc1ccc(C2=Nc3c(c(C)nn3-c3ccccc3)N=C(C(=O)O)C2)cc1`, the TGI was over 10 µM.

On to `Cc1ccc(C(=O)Nc2ccc(CP(=O)(O)O)cc2)cc1NC(=O)c1cccc(NC(=O)Nc2cccc(C(=O)Nc3cc(C(=O)Nc4ccc(CP(=O)(O)O)cc4)ccc3C)c2)c1`, for which the TGI was over 100 µM.

`O=C1C(Br)=Cc2c(Cl)sc(Cl)c21` came in with a TGI of 26.7 µM.

`O=[N+]([O-])C(=C(Sc1ccccc1)Sc1ccccc1)C(Cl)=C(Cl)Cl` displayed a TGI of 1.17 µM.

`CCOC(=O)C1C(=O)CC(O)(c2ccccc2)C(C(=O)OCC)C1c1ccc(OC)cc1` (centres undefined): the TGI amounted to 82.9 µM.

As for `CC(=O)CC(=O)c1cc2c(=O)oc(C)cc2oc1=O`, the TGI is over 37.5 µM.

In the case of `COC(=O)CCCC(=O)C(=Nc1c(Cl)cccc1Cl)NNc1ccc(Cl)cc1`, the TGI was over 100 µM.

Compound `C=CC/C(C(=O)OC)=C(/C(=O)OC)N(CCC)CCC` had a TGI of over 100 µM.

The next assay deals with TK-10 renal. In words: NCI-60 cell line screen, 48 h.
Consider `Cc1cccc(C[C@@]2(SCc3ccccc3)C(C)(C)[C@@H]3CC[C@@]2(C)C3)n1`, for which the TGI was found to be 34.5 µM.

As for `O=C1/C(=C/c2ccc([N+](=O)[O-])cc2)CNC/C1=C\c1ccc([N+](=O)[O-])cc1`, the TGI is over 95.8 µM.

The compound `O=C1/C(=C/c2ccc(F)cc2)CNC/C1=C\c1ccc(F)cc1` gave a TGI of 6.71 µM.

Compound `C/C(=N/NC(=S)Nc1cccc(C)c1)c1ccccn1` yielded a TGI of 4.98 µM.

Consider `CC1CC(C#N)=C2NCCCCN2C1=O` (centres undefined), for which the TGI was over 100 µM.

With `O=C(O)c1ccc(NS(=O)(=O)Cc2ccccc2)cc1`, the TGI is over 100 µM.

On to `Cc1ccc(C2=Nc3c(c(C)nn3-c3ccccc3)N=C(C(=O)O)C2)cc1`, for which the TGI was over 10 µM.

`Cc1ccc(C(=O)Nc2ccc(CP(=O)(O)O)cc2)cc1NC(=O)c1cccc(NC(=O)Nc2cccc(C(=O)Nc3cc(C(=O)Nc4ccc(CP(=O)(O)O)cc4)ccc3C)c2)c1` had a TGI of over 100 µM.

Turning to `O=C1C(Br)=Cc2c(Cl)sc(Cl)c21`, the TGI was found to be 5.23 µM.

`O=[N+]([O-])C(=C(Sc1ccccc1)Sc1ccccc1)C(Cl)=C(Cl)Cl`: the TGI came out at 0.326 µM.

Compound `CCOC(=O)C1C(=O)CC(O)(c2ccccc2)C(C(=O)OCC)C1c1ccc(OC)cc1` (centres undefined) gave a TGI of over 100 µM.

`CC(=O)CC(=O)c1cc2c(=O)oc(C)cc2oc1=O`: the TGI was over 37.5 µM.

In the case of `COC(=O)CCCC(=O)C(=Nc1c(Cl)cccc1Cl)NNc1ccc(Cl)cc1`, the TGI was over 100 µM.

The compound `C=CC/C(C(=O)OC)=C(/C(=O)OC)N(CCC)CCC` showed a TGI of over 100 µM.

The next assay deals with OVCAR-8 ovarian. The assay is described as follows: NCI-60 cell line screen, 48 h.
`Cc1cccc(C[C@@]2(SCc3ccccc3)C(C)(C)[C@@H]3CC[C@@]2(C)C3)n1` came in with a TGI of 30 µM.

Consider `O=C1/C(=C/c2ccc([N+](=O)[O-])cc2)CNC/C1=C\c1ccc([N+](=O)[O-])cc1`, for which the TGI stood at 8.36 µM.

Consider `O=C1/C(=C/c2ccc(F)cc2)CNC/C1=C\c1ccc(F)cc1`, for which the TGI was determined as 9.52 µM.

For the compound `C/C(=N/NC(=S)Nc1cccc(C)c1)c1ccccn1`, the TGI amounted to 2.33 µM.

Consider `CC1CC(C#N)=C2NCCCCN2C1=O` (centres undefined), for which the TGI was over 100 µM.

`O=C(O)c1ccc(NS(=O)(=O)Cc2ccccc2)cc1`: the TGI is over 100 µM.

On to `Cc1ccc(C2=Nc3c(c(C)nn3-c3ccccc3)N=C(C(=O)O)C2)cc1`, for which the TGI was over 10 µM.

`Cc1ccc(C(=O)Nc2ccc(CP(=O)(O)O)cc2)cc1NC(=O)c1cccc(NC(=O)Nc2cccc(C(=O)Nc3cc(C(=O)Nc4ccc(CP(=O)(O)O)cc4)ccc3C)c2)c1` registered a TGI of over 100 µM.

As for `O=C1C(Br)=Cc2c(Cl)sc(Cl)c21`, the TGI came to 33.3 µM.

In turn, `O=[N+]([O-])C(=C(Sc1ccccc1)Sc1ccccc1)C(Cl)=C(Cl)Cl` showed a TGI of 0.831 µM.

In turn, `CCOC(=O)C1C(=O)CC(O)(c2ccccc2)C(C(=O)OCC)C1c1ccc(OC)cc1` (centres undefined) had a TGI of over 100 µM.

As to `CC(=O)CC(=O)c1cc2c(=O)oc(C)cc2oc1=O`, the TGI is over 37.5 µM.

Compound `COC(=O)CCCC(=O)C(=Nc1c(Cl)cccc1Cl)NNc1ccc(Cl)cc1` yielded a TGI of over 100 µM.

In turn, `C=CC/C(C(=O)OC)=C(/C(=O)OC)N(CCC)CCC` gave a TGI of over 100 µM.

The subject of another assay is MALME-3M melanoma. In words: NCI-60 cell line screen, 48 h.
The compound `Cc1cccc(C[C@@]2(SCc3ccccc3)C(C)(C)[C@@H]3CC[C@@]2(C)C3)n1` showed a TGI of 33 µM.

Turning to `O=C1/C(=C/c2ccc([N+](=O)[O-])cc2)CNC/C1=C\c1ccc([N+](=O)[O-])cc1`, the TGI is over 100 µM.

In turn, `O=C1/C(=C/c2ccc(F)cc2)CNC/C1=C\c1ccc(F)cc1` registered a TGI of 13.2 µM.

In turn, `C/C(=N/NC(=S)Nc1cccc(C)c1)c1ccccn1` gave a TGI of 8 µM.

In turn, `CC1CC(C#N)=C2NCCCCN2C1=O` (centres undefined) returned a TGI of over 100 µM.

Regarding `O=C(O)c1ccc(NS(=O)(=O)Cc2ccccc2)cc1`, the TGI was over 100 µM.

In turn, `Cc1ccc(C2=Nc3c(c(C)nn3-c3ccccc3)N=C(C(=O)O)C2)cc1` registered a TGI of over 10 µM.

`Cc1ccc(C(=O)Nc2ccc(CP(=O)(O)O)cc2)cc1NC(=O)c1cccc(NC(=O)Nc2cccc(C(=O)Nc3cc(C(=O)Nc4ccc(CP(=O)(O)O)cc4)ccc3C)c2)c1`: the TGI was over 100 µM.

Compound `O=C1C(Br)=Cc2c(Cl)sc(Cl)c21` displayed a TGI of 29 µM.

`O=[N+]([O-])C(=C(Sc1ccccc1)Sc1ccccc1)C(Cl)=C(Cl)Cl` returned a TGI of 1.37 µM.

Compound `CCOC(=O)C1C(=O)CC(O)(c2ccccc2)C(C(=O)OCC)C1c1ccc(OC)cc1` (centres undefined) displayed a TGI of over 100 µM.

In the case of `CC(=O)CC(=O)c1cc2c(=O)oc(C)cc2oc1=O`, the TGI is over 37.5 µM.

Turning to `COC(=O)CCCC(=O)C(=Nc1c(Cl)cccc1Cl)NNc1ccc(Cl)cc1`, the TGI was over 100 µM.

As for `C=CC/C(C(=O)OC)=C(/C(=O)OC)N(CCC)CCC`, the TGI was over 100 µM.

The next assay deals with 786-0 renal. In words: NCI-60 cell line screen, 48 h.
Regarding `Cc1cccc(C[C@@]2(SCc3ccccc3)C(C)(C)[C@@H]3CC[C@@]2(C)C3)n1`, the TGI came to 35.5 µM.

Turning to `O=C1/C(=C/c2ccc([N+](=O)[O-])cc2)CNC/C1=C\c1ccc([N+](=O)[O-])cc1`, the TGI came to 3.18 µM.

On to `O=C1/C(=C/c2ccc(F)cc2)CNC/C1=C\c1ccc(F)cc1`, for which the TGI is 1.45 µM.

Compound `C/C(=N/NC(=S)Nc1cccc(C)c1)c1ccccn1` returned a TGI of 4.26 µM.

The compound `CC1CC(C#N)=C2NCCCCN2C1=O` (centres undefined) returned a TGI of over 100 µM.

As to `O=C(O)c1ccc(NS(=O)(=O)Cc2ccccc2)cc1`, the TGI was over 100 µM.

With `Cc1ccc(C2=Nc3c(c(C)nn3-c3ccccc3)N=C(C(=O)O)C2)cc1`, the TGI is over 10 µM.

Consider `Cc1ccc(C(=O)Nc2ccc(CP(=O)(O)O)cc2)cc1NC(=O)c1cccc(NC(=O)Nc2cccc(C(=O)Nc3cc(C(=O)Nc4ccc(CP(=O)(O)O)cc4)ccc3C)c2)c1`, for which the TGI is over 100 µM.

On to `O=C1C(Br)=Cc2c(Cl)sc(Cl)c21`, for which the TGI was found to be 5.09 µM.

The compound `O=[N+]([O-])C(=C(Sc1ccccc1)Sc1ccccc1)C(Cl)=C(Cl)Cl` displayed a TGI of 0.188 µM.

Compound `CCOC(=O)C1C(=O)CC(O)(c2ccccc2)C(C(=O)OCC)C1c1ccc(OC)cc1` (centres undefined) showed a TGI of over 59.2 µM.

In turn, `CC(=O)CC(=O)c1cc2c(=O)oc(C)cc2oc1=O` came in with a TGI of over 37.5 µM.

`COC(=O)CCCC(=O)C(=Nc1c(Cl)cccc1Cl)NNc1ccc(Cl)cc1` yielded a TGI of over 100 µM.

The compound `C=CC/C(C(=O)OC)=C(/C(=O)OC)N(CCC)CCC` returned a TGI of over 100 µM.

A further assay has as its system HCC-2998 colon. The assay is described as follows: NCI-60 cell line screen, 48 h.
Turning to `Cc1cccc(C[C@@]2(SCc3ccccc3)C(C)(C)[C@@H]3CC[C@@]2(C)C3)n1`, the TGI stood at 28.8 µM.

In turn, `O=C1/C(=C/c2ccc([N+](=O)[O-])cc2)CNC/C1=C\c1ccc([N+](=O)[O-])cc1` showed a TGI of 23.4 µM.

In the case of `O=C1/C(=C/c2ccc(F)cc2)CNC/C1=C\c1ccc(F)cc1`, the TGI is 1.74 µM.

`C/C(=N/NC(=S)Nc1cccc(C)c1)c1ccccn1`: the TGI worked out at 4.18 µM.

The compound `CC1CC(C#N)=C2NCCCCN2C1=O` (centres undefined) returned a TGI of over 100 µM.

`O=C(O)c1ccc(NS(=O)(=O)Cc2ccccc2)cc1` registered a TGI of over 100 µM.

`Cc1ccc(C2=Nc3c(c(C)nn3-c3ccccc3)N=C(C(=O)O)C2)cc1` came in with a TGI of over 10 µM.

For `Cc1ccc(C(=O)Nc2ccc(CP(=O)(O)O)cc2)cc1NC(=O)c1cccc(NC(=O)Nc2cccc(C(=O)Nc3cc(C(=O)Nc4ccc(CP(=O)(O)O)cc4)ccc3C)c2)c1`, the TGI is over 100 µM.

`O=C1C(Br)=Cc2c(Cl)sc(Cl)c21` showed a TGI of 7.71 µM.

As to `O=[N+]([O-])C(=C(Sc1ccccc1)Sc1ccccc1)C(Cl)=C(Cl)Cl`, the TGI amounted to 4.4 µM.

For the compound `CCOC(=O)C1C(=O)CC(O)(c2ccccc2)C(C(=O)OCC)C1c1ccc(OC)cc1` (centres undefined), the TGI is over 100 µM.

The compound `CC(=O)CC(=O)c1cc2c(=O)oc(C)cc2oc1=O` registered a TGI of over 37.5 µM.

`COC(=O)CCCC(=O)C(=Nc1c(Cl)cccc1Cl)NNc1ccc(Cl)cc1`: the TGI was over 100 µM.

`C=CC/C(C(=O)OC)=C(/C(=O)OC)N(CCC)CCC` came in with a TGI of over 100 µM.

The values are drawn from PubChem BioAssay (NCI).
